Like-named read-outs stand apart in the source and are kept apart here.
Key:
[1] = test system: rhythmic bladder contractions induced by substance P; assay: Inhibitory effect on the rhythmic bladder contractions induced by substance P in anesthetized rats; format: in vivo, rat; conditions: time during which frequency of rhythmic contraction was completely inhibited, 0.25 mg/kg of the compound, substance P infusion
Procedure, shortened: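 Value is duration (min) of complete inhibition of bladder contractions, ranked A/B/C at 20 and 10 min cut-offs. Intravenous dosing (0.5% Tween 80 saline) in female SD rats under urethane, bladder saline-filled and contractions maintained by substance P infusion, 0.33 μg/kg/min.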

[2] = test system: isolated rabbit urinary bladder; assay: Relaxation effect on potassium-induced contraction of isolated rabbit urinary bladder; format: cell-based; conditions: 50% relaxation concentration, high-K+ (30 mM) pre-contracted rabbit bladder strips, relaxation as percentage of the maximum produced by 0.1 mM papaverine, read-out: EC50 value range
Procedure: Relaxation effect on potassium-induced contraction of isolated rabbit urinary bladder
Urinary bladder was isolated from Male NZW rabbits (2.0-3.5 kg) and immersed in ice-cold Krebs-bicarbonate solution (in mM: 118 NaCl, 4.7 KCl, 1.2, 2.5 CaCl2, MgSO4, 1.2 KH2PO4, 11 glucose, 25 NaHCO3). The urinary bladder was cut into longitudinal strips (5 mm length, 3-4 mm width) after mucosal layer was removed. Preparations were mounted in organ baths containing 10 ml of Krebs solution maintained at 37° C. and gassed with 95% O2/5% CO2. Accordingly, preparations were stretched with an initial tension of 2.0±1.0 g, and changes in isometric tension were measured by force-displacement transducer. The preparations were pre-contracted by changing organ-bath solution into high-K^+ (30 mM) Krebs solution (in mM: 92.7 NaCl, 30 KCl, 1.2, 2.5 CaCl2, MgSO4, 1.2 KH2PO4, 11 glucose, 25 NaHCO3).
After stable tension was obtained, compounds were added into organ baths cumulatively (10^−8M-10^−4M). The effects of compounds were expressed as a percentage of the maximum relaxation produced by 0.1 mM papaverine. 50% relaxation concentration (EC50) was calculated and EC50 value range (μM) of the compounds of the present invention was shown in the following Table 64 with a rank of A, B or C. These ranges are as mentioned below. 3≧C≧1≧B≧0.5≧A

Compound | 100% inhibition time range [1] | EC50 ([2]; Oryctolagus cuniculus) | EC50 [2]
O=C(O)Cc1oc(-c2cc3ccccc3s2)nc1-c1ccc(Cl)s1 [Preparation Example 503] | A (A≧20>B≧10>C (minute)) | 1 to 3 µM | –
CCN(C)c1ncc(-c2nc(CC(=O)O)c(-c3ccc(Cl)s3)o2)cn1 [Preparation Example 363] | C (A≧20>B≧10>C (minute)) | 1 to 3 µM | –
O=C(O)Cc1nc(-c2cc3ccccc3s2)oc1-c1cccs1 [Preparation Example 267] | C (A≧20>B≧10>C (minute)) | ≤ 0.5 µM | –
CCOc1ccc(-c2nc(CC(=O)[O-])c(-c3ccc(Cl)s3)o2)cn1.[Na+] [Preparation Example 367, 2-(6-ethoxypyridin-3-yl)-5-(5-chlorothiophen-2-yl)oxazol-4-yl acetic acid sodium salt] | A (A≧20>B≧10>C (minute)) | 0.5 to 1 µM | –
CCCc1nc(-c2ccccn2)[nH]c1-c1cccs1 [Preparation example 5] | – | 1 to 3 µM | –
CCCc1nc(-c2cc3ccccc3o2)[nH]c1-c1ccccc1 [Preparation example 38] | – | 1 to 3 µM | –
CSc1ncc(-c2nc(CC(=O)O)c(-c3ccc(Cl)s3)o2)cn1 [Preparation Example 445] | A (A≧20>B≧10>C (minute)) | 1 to 3 µM | –
CCCc1nc(-c2ccccc2[N+](=O)[O-])[nH]c1-c1ccccc1 [Preparation example 39] | – | 1 to 3 µM | –
CCCc1nc(-c2ccsc2)[nH]c1-c1ccccc1 [Preparation example 33] | – | ≤ 0.5 µM | –
CCc1nc(-c2ccc(F)cc2)[nH]c1-c1cncs1 [Preparation example 86] | B (A≧20>B≧10>C (minute)) | 0.5 to 1 µM | –
CCc1nc(-c2ccc(C#N)cc2)[nH]c1-c1cccnc1 [Preparation example 53] | C (A≧20>B≧10>C (minute)) | 0.5 to 1 µM | –
O=C([O-])Cc1oc(-c2ccc(F)cc2)nc1-c1ccc(Cl)s1.[Na+] [Preparation Example 487, 4-(5-chloro-thiophen-2-yl)-2-(4-fluorophenyl)oxazol-5-yl acetic acid sodium salt] | C (A≧20>B≧10>C (minute)) | 0.5 to 1 µM | –
CC(C)c1ccc(-c2nc(CC(=O)O)c(-c3ccc(Cl)s3)o2)cc1 [Preparation Example 273] | C (A≧20>B≧10>C (minute)) | 1 to 3 µM | –
O=C(O)Cc1nc(-c2ccc3occc3c2)oc1-c1ccsc1 [Preparation Example 255] | B (A≧20>B≧10>C (minute)) | 1 to 3 µM | –
O=C(O)Cc1nc(-c2ccc3ccccc3n2)oc1-c1ccc(Cl)s1 [Preparation Example 434] | B (A≧20>B≧10>C (minute)) | 0.5 to 1 µM | –
Cl.N#CCCc1[nH]c(-c2ccc(F)cc2)nc1-c1ccccc1O [Preparation Example 350, 5-(2-cyanoethyl)-2-(4-fluorophenyl)-4-(2-hydroxyphenyl)-imidazole hydrochloride] | B (A≧20>B≧10>C (minute)) | 1 to 3 µM | –
O=C(O)Cc1nc(-c2cc3ccccc3s2)oc1-c1ccsc1 [Preparation Example 437] | B (A≧20>B≧10>C (minute)) | ≤ 0.5 µM | –
Cc1csc(-c2nc(CC(=O)O)c(-c3ccc(Cl)s3)o2)c1 [Preparation Example 478] | B (A≧20>B≧10>C (minute)) | ≤ 0.5 µM | –
CCCc1nc(-c2ccc(F)cc2)[nH]c1-c1ccccn1 [Preparation example 97] | – | 0.5 to 1 µM | –
5-(5-chlorothiophen-2-yl)-2-(4-fluorophenyl)oxazole-4-yl propionic acid sodium salt [Preparation Example 339] | – | – | 1 to 3 µM
CCc1nc(-c2ccc(C)nc2)[nH]c1-c1ccsc1 [Preparation example 81] | – | 1 to 3 µM | –
Cc1cccc(-c2nc(CC(=O)O)c(-c3cccs3)o2)c1 [Preparation Example 432] | C (A≧20>B≧10>C (minute)) | ≤ 0.5 µM | –
O=C(O)Cc1nc(-c2ccc(F)cc2)oc1-c1ccc(Br)s1 [Preparation Example 256] | C (A≧20>B≧10>C (minute)) | ≤ 0.5 µM | –
CCc1nc(-c2csc(Br)c2)[nH]c1-c1cccnc1 [Preparation example 19] | – | ≤ 0.5 µM | –
CCc1[nH]c(-c2ccsc2C(C)O)nc1-c1cccnc1.Cl.Cl (centres unmarked) [Preparation Example 486, 2-[2-(1-hydroxyethyl)thiophen-3-yl]-5-ethyl-4-(3-pyridyl)-imidazole dihydrochloride] | B (A≧20>B≧10>C (minute)) | 1 to 3 µM | –
CN(C)c1ncc(-c2nc(-c3ccc(Cl)s3)c(CC(=O)O)s2)cn1 [Preparation Example 600] | A (A≧20>B≧10>C (minute)) | ≤ 0.5 µM | –
Fc1ccc(-c2nc(CC(F)(F)F)c(-c3ccsc3)[nH]2)cc1 [Preparation Example 173] | – | 1 to 3 µM | –

Compound | 100% inhibition time range [1] | EC50 ([2]; Oryctolagus cuniculus) | EC50 [2]
CCc1c(-c2cccnc2)nc(-c2ccc(F)cc2)n1CC [Preparation example 104] | A (A≧20>B≧10>C (minute)) | 0.5 to 1 µM | –
CSCc1nc(-c2cccc(F)c2)[nH]c1-c1ccccc1 [Preparation example 131] | – | 1 to 3 µM | –
COc1ccc(-c2nc(-c3cccs3)c(CC(=O)O)s2)cc1 [Preparation Example 578] | B (A≧20>B≧10>C (minute)) | 0.5 to 1 µM | –
CCNC(=O)Cc1nc(-c2ccc(F)cc2)oc1-c1ccsc1 [Preparation Example 616] | B (A≧20>B≧10>C (minute)) | 1 to 3 µM | –
CSc1ccc(-c2nc(-c3ccc(Cl)s3)c(CC(=O)O)s2)cc1 [Preparation Example 590] | B (A≧20>B≧10>C (minute)) | ≤ 0.5 µM | –
CCCc1nc(-c2cccc3ccccc23)[nH]c1-c1ccccc1 [Preparation example 36] | – | 1 to 3 µM | –
O=C(O)Cc1[nH]c(-c2cc3ccccc3s2)nc1-c1ccc(Cl)cc1 [Preparation Example 355] | – | ≤ 0.5 µM | –
CCCc1nc(-c2ccccc2)[nH]c1-c1ccccc1 [Preparation Example 180] | – | 1 to 3 µM | –
O=C(O)Cc1oc(-c2ccc(F)cc2)nc1-c1ccc(Cl)cc1 [Preparation Example 511] | C (A≧20>B≧10>C (minute)) | ≤ 0.5 µM | –
Cc1ccc(-c2nc(CC(=O)O)c(-c3cccs3)o2)s1 [Preparation Example 268] | C (A≧20>B≧10>C (minute)) | ≤ 0.5 µM | –
O=C(O)Cc1nc(-c2cc3c(s2)CCC3)oc1-c1ccc(Cl)s1 [Preparation Example 479] | C (A≧20>B≧10>C (minute)) | ≤ 0.5 µM | –
COc1ccc(-c2nc(-c3ccsc3)c(CC(=O)O)s2)cc1 [Preparation Example 597] | – | ≤ 0.5 µM | –
C[S+]([O-])Cc1[nH]c(-c2ccc(F)cc2)nc1-c1ccccc1 (centres unmarked) [Preparation example 639] | C (A≧20>B≧10>C (minute)) | 1 to 3 µM | –
CCCCc1nc(-c2ccc(F)cc2)[nH]c1-c1ccsc1 [Preparation Example 170] | – | 1 to 3 µM | –
COc1ccc(-c2nc(-c3cccs3)c(CC(=O)O)o2)cc1 [Preparation Example 507] | – | ≤ 0.5 µM | –
COCc1nc(-c2ccc(F)cc2)[nH]c1-c1ccccc1 [Preparation example 121] | – | 1 to 3 µM | –
CCCc1nc(-c2ccc[nH]2)[nH]c1-c1ccccc1 [Preparation example 35] | – | 1 to 3 µM | –
O=C(O)Cc1nc(-c2ccc(Cl)cc2)oc1C1CCCC1 [Preparation Example 265] | – | 1 to 3 µM | –
CCc1nc(-c2ccc(F)cc2)[nH]c1-c1cscn1 [Preparation example 52] | – | ≤ 0.5 µM | –
CCc1nc(-c2ccc(F)cc2)[nH]c1-c1nccs1 [Preparation example 51] | – | ≤ 0.5 µM | –
CCc1nc(-c2ccc(F)cc2)[nH]c1-c1cnccn1 [Preparation example 49] | – | 0.5 to 1 µM | –
CCc1nc(-c2ccc(F)cc2)[nH]c1-c1ccccc1OC [Preparation example 84] | – | ≤ 0.5 µM | –
CC(C)c1nc(-c2ccc(F)cc2)[nH]c1-c1ccsc1 [Preparation Example 169] | – | 1 to 3 µM | –
CCOC(=O)C(N)c1nc(-c2ccc(F)cc2)oc1-c1ccc(Cl)s1 (centres unmarked) [Preparation Example 372, ethyl 2-amino-2-[5-(5-chlorothiophen-2-yl)-2-(4-fluorophenyl)-oxazol-4-yl]acetate] | – | 1 to 3 µM | –
CCCc1nc(-c2ccc(F)cc2)[nH]c1-c1cccc(OC)c1 [Preparation example 96] | – | 1 to 3 µM | –
CCc1nc(-c2cccc(C#N)c2)[nH]c1-c1cccnc1 [Preparation example 57] | – | 1 to 3 µM | –
CN(C)c1ccc(-c2nc(-c3cccs3)c(CC(=O)O)o2)cn1 [Preparation Example 506] | – | 0.5 to 1 µM | –
